Consider 20 compounds from patent publication US8088761B2, “Enzyme inhibitors” (Cancer Research Technology Limited, priority 2005, dated 2012).

One assay addresses T1, Aurora-A (Homo sapiens, UniProt O14965).
T1 sequence (O14965 1-403): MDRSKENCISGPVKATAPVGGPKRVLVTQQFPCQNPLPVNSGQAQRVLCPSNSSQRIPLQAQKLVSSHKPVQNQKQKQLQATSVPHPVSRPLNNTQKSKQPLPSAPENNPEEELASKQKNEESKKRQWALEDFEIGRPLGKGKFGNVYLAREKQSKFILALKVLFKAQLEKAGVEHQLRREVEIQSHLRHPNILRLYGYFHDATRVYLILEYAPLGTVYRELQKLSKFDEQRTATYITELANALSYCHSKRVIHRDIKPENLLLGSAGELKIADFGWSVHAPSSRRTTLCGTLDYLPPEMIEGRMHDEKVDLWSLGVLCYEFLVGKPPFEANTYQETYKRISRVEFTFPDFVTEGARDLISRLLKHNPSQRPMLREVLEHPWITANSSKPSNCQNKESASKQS
In words: Flashplate Aurora A enzyme inhibition assay. The conditions noted are these: Flashplate assay; IC50 range; read-out: Aurora-A inhibition. It counts as biochemical. The method in brief: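 This is a radiometric Flashplate format: plates were precoated with DTT, and compound (in 2% DMSO) was mixed with kinase buffer (pH 7.5 Tris, MgCl2, NaCl) containing 1 mM MBP, 20 μM ATP and ^33P-ATP. The reaction was started with 250 ng Aurora-A per well and incubated 2 h at RT. It was then stopped by 10 mM sodium pyrophosphate washing, and plates were scintillation-counted.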

The test system of another assay is HCT116 cells. In words: Cell viability assay (MTT) in HCT116 cell line. It counts as cell-based. Particulars: Homo sapiens, HCT-116, 72 hrs, IC50 range, read-out: HCT116 cell growth inhibition. The essentials:
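MTT read-out (4 hrs, 37 °C, DMSO extraction) following 72 hrs of treatment with 0-50 μM Aurora inhibitor. HCT116 cells were plated a day earlier and tested in triplicate; IC50 derived from the curve.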

Some results are limits rather than exact numbers.

Consider `CC(C)c1nc(CN2CCN(c3c(Br)cnc4[nH]c(-c5ccc(CN6CCOCC6)cc5)nc34)CC2)cs1` [Example 155, 4-(4-(6-Bromo-7-(4-((2-isopropylthiazol-4-yl)methyl)piperazin-1-yl)-3H-imidazo[4,5-b]pyridin-2-yl)benzyl)morpholine], for which the results for the IC50 on Aurora-A and in the assay with HCT116 cells were under 500 nM and 2000 to 50000 nM, respectively.
The matching figures for `Cc1nc(CN2CCN(c3c(Br)cnc4[nH]c(-c5ccc(CN6CCOCC6)cc5)nc34)CC2)cs1` [Example 156, 4-(4-(6-Bromo-7-(4-((2-methylthiazol-4-yl)methyl)piperazin-1-yl)-3H-imidazo[4,5-b]pyridin-2-yl)benzyl)morpholine]: under 500 nM and under 500 nM.
In the same order, the values of `Cc1nc(CN2CCN(c3c(Br)cnc4[nH]c(-c5ccc(N6CCOCC6)cc5)nc34)CC2)cs1` [Example 159, 4-(4-(6-Bromo-7-(4-((2-methylthiazol-4-yl)methyl)piperazin-1-yl)-3H-imidazo[4,5-b]pyridin-2-yl)phenyl)morpholine] are under 500 nM and 500 to 2000 nM.
In the same order, the values of `Brc1cnc2[nH]c(-c3ccc(CN4CCOCC4)cc3)nc2c1N1CCN(Cc2cscn2)CC1` [Example 160, 4-(4-(6-Bromo-7-(4-(thiazol-4-ylmethyl)piperazin-1-yl)-3H-imidazo[4,5-b]pyridin-2-yl)benzyl)morpholine] are under 500 nM and under 500 nM.
With `Cc1nc(CN2CCN(c3c(Br)cnc4[nH]c(-c5ccc(-n6cccn6)cc5)nc34)CC2)cs1` [Example 161, 4-((4-(2-(4-(1H-Pyrazol-1-yl)phenyl)-6-bromo-3H-imidazo[4,5-b]pyridin-7-yl)piperazin-1-yl)methyl)-2-methylthiazole], the IC50 at Aurora-A was under 500 nM; in the assay with HCT116 cells, 2000 to 50000 nM.
The matching figures for `Cc1nc(CN2CCN(c3c(Br)cnc4[nH]c(-c5ccc(N6CCNCC6)cc5)nc34)CC2)cs1` [Example 163, 4-((4-(6-Bromo-2-(4-(piperazin-1-yl)phenyl)-3H-imidazo[4,5-b]pyridin-7-yl)piperazin-1-yl)methyl)-2-methylthiazole]: under 500 nM and under 500 nM.
The matching figures for `Cc1nc(CN2CCN(c3c(Br)cnc4[nH]c(-c5ccc(CN6CCNCC6)cc5)nc34)CC2)cs1` [Example 164, 4-((4-(6-Bromo-2-(4-(piperazin-1-ylmethyl)phenyl)-3H-imidazo[4,5-b]pyridin-7-yl)piperazin-1-yl)methyl)-2-methylthiazole]: under 500 nM and under 500 nM.
On to `COc1ccc(-c2nc3c(N4CCN(Cc5cncn5C)CC4)c(Br)cnc3[nH]2)cc1` [Example 165, 6-Bromo-2-(4-methoxyphenyl)-7-(4-((1-methyl-1H-imidazol-5-yl)methyl)piperazin-1-yl)-3H-imidazo[4,5-b]pyridine], for which the IC50 was under 500 nM on Aurora-A and 500 to 2000 nM in the assay on HCT116 cells.
In the same order, the values of `Cn1ccnc1CN1CCN(c2c(Br)cnc3[nH]c(-c4ccc(CN5CCOCC5)cc4)nc23)CC1` [Example 166, 4-(4-(6-Bromo-7-(4-((1-methyl-1H-imidazol-2-yl)methyl)piperazin-1-yl)-3H-imidazo[4,5-b]pyridin-2-yl)benzyl)morpholine] are under 500 nM and 500 to 2000 nM.
In the same order, the values of `COc1ccc(-c2nc3c(N4CCN(Cc5nccn5C)CC4)c(Br)cnc3[nH]2)cc1` [Example 167, 6-Bromo-2-(4-methoxyphenyl)-7-(4-((1-methyl-1H-imidazol-2-yl)methyl)piperazin-1-yl)-3H-imidazo[4,5-b]pyridine] are under 500 nM and 500 to 2000 nM.
In the same order, the values of `COc1ccc(-c2nc3c(N4CCN(Cc5cn(C)cn5)CC4)c(Br)cnc3[nH]2)cc1` [Example 168, 6-Bromo-2-(4-methoxyphenyl)-7-(4-((1-methyl-1H-imidazol-4-yl)methyl)piperazin-1-yl)-3H-imidazo[4,5-b]pyridine] are under 500 nM and 2000 to 50000 nM.
For `Cn1cncc1CN1CCN(c2c(Br)cnc3[nH]c(-c4ccc(CN5CCOCC5)cc4)nc23)CC1` [Example 169, 4-(4-(6-Bromo-7-(4-((1-methyl-1H-imidazol-5-yl)methyl)piperazin-1-yl)-3H-imidazo[4,5-b]pyridin-2-yl)benzyl)morpholine], the figures for the IC50 at Aurora-A and with HCT116 cells were under 500 nM and 500 to 2000 nM, respectively.
The matching figures for `COc1ccc(-c2nc3c(N4CCN(Cc5cncs5)CC4)c(Br)cnc3[nH]2)cc1` [Example 170, 5-((4-(6-Bromo-2-(4-methoxyphenyl)-3H-imidazo[4,5-b]pyridin-7-yl)piperazin-1-yl)methyl)thiazole]: under 500 nM and 500 to 2000 nM.
As for `Brc1cnc2[nH]c(-c3ccc(CN4CCOCC4)cc3)nc2c1N1CCN(Cc2cncs2)CC1` [Example 171, 4-(4-(6-Bromo-7-(4-(thiazol-5-ylmethyl)piperazin-1-yl)-3H-imidazo[4,5-b]pyridin-2-yl)benzyl)morpholine], the results for the IC50 on Aurora-A and with HCT116 cells were under 500 nM and 500 to 2000 nM, respectively.
For the compound `Cc1nc(CN2CCN(c3c(Cl)cnc4[nH]c(-c5ccc(CN6CCOCC6)cc5)nc34)CC2)cs1` [Example 172, 4-(4-(6-Chloro-7-(4-((2-methylthiazol-4-yl)methyl)piperazin-1-yl)-3H-imidazo[4,5-b]pyridin-2-yl)benzyl)morpholine], the IC50 is under 500 nM at Aurora-A and 500 to 2000 nM in the assay with HCT116 cells.
In the same order, the values of `Cc1nc(CN2CCN(c3c(Cl)cnc4[nH]c(-c5ccc(Cn6cccn6)cc5)nc34)CC2)cs1` [Example 173, 4-((4-(2-(4-((1H-Pyrazol-1-yl)methyl)phenyl)-6-chloro-3H-imidazo[4,5-b]pyridin-7-yl)piperazin-1-yl)methyl)-2-methylthiazole] are under 500 nM and under 500 nM.
`Cc1nc(CN2CCN(c3c(Cl)cnc4[nH]c(-c5ccc(CN6CCNCC6)cc5)nc34)CC2)cs1` [Example 175, 4-((4-(6-Chloro-2-(4-(piperazin-1-ylmethyl)phenyl)-3H-imidazo[4,5-b]pyridin-7-yl)piperazin-1-yl)methyl)-2-methylthiazole]: the IC50 on Aurora-A and in the assay on HCT116 cells was under 500 nM throughout.
For `CN(C)c1ccc(-c2nc3c(N4CCN(CCc5ccccc5)CC4)c(Cl)cnc3[nH]2)cc1` [Example 176, 4-(6-Chloro-7-(4-phenethylpiperazin-1-yl)-3H-imidazo[4,5-b]pyridin-2-yl)-N,N-dimethylaniline], the IC50 on Aurora-A was in the range of 500 to 2000 nM; with HCT116 cells, 2000 to 50000 nM.
The matching figures for `Clc1cnc2[nH]c(-c3ccc(CN4CCOCC4)cc3)nc2c1N1CCN(Cc2cscn2)CC1` [Example 177, 4-(4-(6-Chloro-7-(4-(thiazol-4-ylmethyl)piperazin-1-yl)-3H-imidazo[4,5-b]pyridin-2-yl)benzyl)morpholine]: under 500 nM and 500 to 2000 nM.
The matching figures for `Brc1cnc2[nH]c(-c3ccc(CN4CCNCC4)cc3)nc2c1N1CCN(Cc2cscn2)CC1` [Example 179, 4-((4-(6-Bromo-2-(4-(piperazin-1-ylmethyl)phenyl)-3H-imidazo[4,5-b]pyridin-7-yl)piperazin-1-yl)methyl)thiazole]: under 500 nM and 500 to 2000 nM.
